Assay results as given in doi:10.1101/2023.02.27.530254, “Large library docking for cannabinoid-1 receptor agonists with reduced side effects” (bioRxiv, 2024).
Values joined by “and” are separate entries in the source; they are usually repeats but may differ in a detail not shown here. Identical values can stand only once. Like-named read-outs stand apart in the source and are kept apart here.

Assays:
hCB1 [1] = biological target: T1, hCB1 (Homo sapiens, UniProt P21554); assay: Cerep HTRF cAMP inhibition assay, hCB1 CHO-K1 cells; assay type: cell-based
T1 sequence (P21554 whole entry): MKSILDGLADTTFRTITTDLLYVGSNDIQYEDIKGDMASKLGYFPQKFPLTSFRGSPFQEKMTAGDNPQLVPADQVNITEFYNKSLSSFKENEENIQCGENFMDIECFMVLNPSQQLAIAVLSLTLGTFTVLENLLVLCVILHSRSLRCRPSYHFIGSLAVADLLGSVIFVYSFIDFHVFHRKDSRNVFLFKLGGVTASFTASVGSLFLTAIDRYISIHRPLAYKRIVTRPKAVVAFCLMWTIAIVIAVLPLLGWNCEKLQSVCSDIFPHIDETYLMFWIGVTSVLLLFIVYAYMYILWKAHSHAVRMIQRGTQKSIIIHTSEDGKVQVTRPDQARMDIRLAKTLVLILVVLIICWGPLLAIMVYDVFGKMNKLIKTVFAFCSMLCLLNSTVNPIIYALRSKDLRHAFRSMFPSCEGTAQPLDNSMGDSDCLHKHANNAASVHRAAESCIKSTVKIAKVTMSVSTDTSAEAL
Protocol: The hCB1 CHO-K1 cells are suspended in HBSS buffer (Invitrogen) complemented with 20 mM HEPES (pH 7.4), then distributed in microplates at a density of 5.103 cells/well in the presence of either of the following: HBSS (basal control), the reference agonist at 30 nM (stimulated control) or the test compounds. […] Following 30 min incubation at 37°C, the cells are lysed, and the fluorescence acceptor (D2-labeled cAMP) and fluorescence donor (anti-cAMP antibody labeled with europium cryptate) are added. […] Each measurement was done in triplicate.

hCB1 [2] = biological target: T1, hCB1; assay: DiscoverX PathHunter β-arrestin-2 recruitment assay; assay type: cell-based
Protocol: PathHunter cell lines (CHO-K1 lineage expressing hCB1) were expanded from freezer stocks according to standard procedures. Cells were seeded in a total volume of 20 μL into white walled, 384-well microplates and incubated at 37°C for the appropriate time prior to testing. For agonist determination, cells were incubated with sample to induce response. Intermediate dilution of sample stocks was performed to generate 5X sample in assay buffer. 5 μL of 5X sample was added to cells and incubated at 37°C or room temperature for 90 to 180 minutes. Vehicle concentration was 1%. […] Microplates were read following signal generation with a PerkinElmer EnvisionTM instrument for chemiluminescent signal detection. Compound activity was analyzed using CBIS data analysis suite (ChemInnovation, CA).
The data were analyzed in GraphPad Prism 9.1 using “dose–response-stimulation log(agonist) versus response (four parameters)” and data were presented as EC50 or pEC50 ± CIs of one independent experiment in duplicate.

hCB2 [3] = biological target: T2, hCB2 (Homo sapiens, UniProt P34972); assay: Cerep cAMP assay; assay type: cell-based
T2 sequence (P34972 whole entry): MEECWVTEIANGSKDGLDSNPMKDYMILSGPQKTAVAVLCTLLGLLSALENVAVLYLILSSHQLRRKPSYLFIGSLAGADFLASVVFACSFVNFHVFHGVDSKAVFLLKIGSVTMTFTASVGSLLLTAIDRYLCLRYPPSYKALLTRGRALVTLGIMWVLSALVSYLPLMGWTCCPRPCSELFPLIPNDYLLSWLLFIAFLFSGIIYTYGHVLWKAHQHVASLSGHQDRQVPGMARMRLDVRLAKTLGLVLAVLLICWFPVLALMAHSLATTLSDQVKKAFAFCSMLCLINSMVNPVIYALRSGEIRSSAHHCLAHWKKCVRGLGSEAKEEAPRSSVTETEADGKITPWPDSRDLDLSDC

[4] = Pharmacokinetics in plasma, brain and CSF; assay type: in vivo, CD-1 mice; details: 0.2 mg/kg i.p., mice; for half-life: in vivo
Protocol: The batches of working formulations were prepared 5–10 minutes prior to the in vivo study. […] There was also a one mouse control group. All animals were fasted for 4 h before dosing. Mice were injected i.p. with 2,2,2-tribromoethanol at the dose of 150 mg/kg prior to drawing CSF and blood. Blood collection was performed from the orbital sinus in microtainers containing K3EDTA. CSF was collected under a stereomicroscope from cisterna magna using 1 mL syringes. Animals were sacrificed by cervical dislocation after the blood samples collection. After this, right lobe brain samples were collected and weighted. All samples were immediately processed, flash-frozen and stored at −70°C until subsequent analysis.
Plasma samples (40 μL) were mixed with 200 μL of internal standard solution. After mixing by pipetting and centrifuging for 4 min at 6,000 rpm, supernatant was injected into LC-MS/MS system. […] After this, the samples were centrifuged for 4 min at 14,000 rpm, and supernatant was injected into LC-MS/MS system. CSF samples (4 μL) were mixed with 100 μL of IS(80) solution. After mixing by pipetting and centrifuging for 4 min at 6,000 rpm, 1–6 μL of each supernatant was injected into LC-MS/MS system.
Analyses of plasma, brain and CSF samples were conducted at Enamine/Bienta. The concentrations of compounds in samples were determined using high performance liquid chromatography/tandem mass spectrometry (HPLC-MS/MS) method. Data acquisition and system control was performed using Analyst 1.6.3 software (AB Sciex, Canada). The concentrations of the test compound below the lower limit of quantitation (LLOQ: 2–5 ng/mL for plasma and CSF, 1–5 ng/g for brain) were designated as zero. The pharmacokinetic data analysis was performed using noncompartmental, bolus injection or extravascular input analysis models in WinNonlin 5.2 (PharSight). Data below LLOQ were presented as missing to improve validity of T½ calculations.

C56BL/6 mice [5] = assay: CFA-induced inflammatory pain model, Hargreaves test; assay type: in vivo, mouse; details: 0.2 mg/kg i.p.
Protocol: (§1) Hindpaw mechanical thresholds were determined with von Frey filaments using the up-down method. […] Each training has three sessions of five min. each.
The CFA model of chronic inflammation was induced as described previously. Briefly, CFA (Sigma) was diluted 1:1 with saline and vortexed for 30 min. When fully suspended, we injected 20 μL of CFA into one hindpaw. Heat thresholds were measured before the injection (baseline) and 3 days after the injection using the Hargreaves test.

C56BL/6 mice [6] = assay: Mechanical thresholds (von Frey), SNI model of neuropathic pain and naive mice; assay type: in vivo, mouse
Protocol: as §1
Under isoflurane anesthesia, two of the three branches of the sciatic nerve were ligated and transected distally, leaving the sural nerve intact. Behavior was tested 7 to 14 days after injury.

C56BL/6 mice [7] = assay: Formalin test; assay type: in vivo, mouse; details: 0.2 mg/kg i.p., 60 min observation
Protocol: Thirty minutes after an i.p. injection of the compounds, mice received an intraplantar injection of a 20μl solution containing 2% formalin (Acros Organics) and we recorded the time mice spent licking/biting/guarding (nocifensive behaviors) the injected hindpaw over the next 60 min.

C56BL/6 mice [8] = assay: Rotarod test of sedation; assay type: in vivo, mouse; details: for dose showing motor deficits: rotarod test
Protocol: as §1

hCB2 [9] = biological target: T2, hCB2; assay: Radioligand competition binding with [3H]-CP-55,940, HEK293 cells stably expressing human CB2R; design: expressed in transfected cells; details: Fig. S8, read-out: hCB2 pKi (converted)
Protocol: The binding affinities of the compounds were obtained by competition binding using membrane preparations from rat brain (source of CB1) or HEK293 cells stably expressing human CB2R receptors and [^3H]-CP-55,940 as the radioligand, as described. The results were analyzed using nonlinear regression to determine the IC50 and Ki values for each ligand (Prism by GraphPad Software, Inc., San Diego, CA). The Ki values are expressed as the mean of two to three experiments each performed in triplicate.

hCB1 [10] = biological target: T1, hCB1; assay: GloSensor cAMP accumulation assay; assay type: cell-based; design: host or cells: HEK293 (HEK293SL clone), transient; details: for Emax: read-out: hCB1 Glosensor cAMP Emax [95% CI]
Protocol: The results were analysed using GraphPad Prism 9.1. Each experiment was performed in triplicate and functional IC50 values were determined from the mean of three independent experiments.

For `COC(=O)C(C)(NC(=O)c1cc(C)n(-c2cccc(C(F)(F)F)c2)n1)c1cccs1` (centres unmarked) [‘4042], the EC50 (hCB1 [1]) was 0.008 nM, the Emax (hCB1 [1]; CHO-K1, read-out: hCB1 Cerep cAMP Emax [95% CI]) was 96% and the EC50 (hCB1 [2]; hCB1 DiscoverX ß-arrestin recruitment EC50 [95% CI]) was 2.3 nM. It also gave an EC50 (hCB1 [2]; hCB1 DiscoverX ß-arrestin recruitment pEC50 [95% CI]) of 2 nM, an Emax (hCB1 [2]; read-out: hCB1 DiscoverX ß-arrestin recruitment Emax [95% CI]) of 71% and an EC50 (hCB2 [3]) of 0.0112 nM. For the same compound, the Emax (hCB2 [3]; read-out: hCB2 Cerep cAMP Emax [95% CI]) was 72%, the Cmax brain [4] was 16.8 ng/g and the “compartments in which compound was found” value [4] was “appreciably in brain and plasma, but not CSF compartments”. The AUC(0-inf) ([4]; male, CD-1, mouse, brain, ip, read-out: AUC0→inf brain tissue (converted)) was 0.053 µg·h/mL, the half-life ([4]; male, CD-1, mouse, ip) was 1.9 h and the Cmax ([4]; male, CD-1, mouse, plasma, ip) was 5.14 ng/mL and 12 nM. For the same compound, the AUC(0-inf) ([4]; male, CD-1, mouse, plasma, ip, read-out: AUC0→inf plasma (converted)) was 0.0225 µg·h/mL, the “effect on paw withdrawal latency after CFA” value (C56BL/6 mice [5]) was “analgesic” and the “effect on SNI mechanical allodynia” value (C56BL/6 mice [6]; 0.2 mg/kg i.p.) was “did not counter the mechanical allodynia”. The “effect on mechanical thresholds of naïve (non-SNI) animals” value (C56BL/6 mice [6]; 0.2 mg/kg i.p.) was “did not alter the mechanical thresholds”, the “effect on SNI mechanical allodynia” value (C56BL/6 mice [6]; intrathecal, up to 100 μg/kg) was “modest anti-allodynic effect” and the “duration of phase 1 and phase 2 nocifensive behaviors” value (C56BL/6 mice [7]) was “profoundly decreased”. The “dose showing motor deficits” value (C56BL/6 mice [8]) was 1.0 mg/kg, the Ki (hCB2 [9]) was 2.51 nM and the EC50 (hCB1 [10]) was 0.0398 nM. The Emax (hCB1 [10]) was 91%.

With `COC(=O)[C@@](C)(NC(=O)c1cc(C)n(-c2cccc(C(F)(F)F)c2)n1)c1cccs1` [‘1350] the “window between heat-based response and sedation” value (C56BL/6 mice [8]; rotarod) was “only five-fold” and the “dose showing motor deficits” value (C56BL/6 mice [8]) was 0.5 mg/kg.

In the case of `CCCCCCC(C)(C)c1ccc([C@@H]2C[C@H](O)CC[C@H]2CCCO)c(O)c1` [CP-55,940, reference compound], the Cmax brain [4] is reported as 19.2 ng/g, the “plasma Cmax increase compared to ‘4042” value [4] is reported as roughly 10 fold and the half-life ([4]; male, CD-1, mouse, ip) is reported as 2.12 h.

`COC(=O)C(NC(=O)c1cc(C)n(-c2cccc(C(F)(F)F)c2)n1)c1cccs1` (centres unmarked) [‘60154] gave an EC50 (hCB1 [10]) of 25.1 nM and an Emax (hCB1 [10]) of 82%.
